Assays:
Test in all cases: Standardized radiometric kinase assays, percentage of activity at 0.5 μM;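 note: Read-out is ³³P-labelled substrate protein phosphorylated by each kinase, captured on filters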
[1] = biological target: each individual kinase of the panel (Homo sapiens, UniProt Q13237)
[2] = biological target: each individual kinase of the panel (Homo sapiens, UniProt Q8TDC3)
[3] = biological target: each individual kinase of the panel (Homo sapiens, UniProt Q9Y6E0)
[4] = biological target: each individual kinase of the panel (Homo sapiens, UniProt Q7KZI7)
[5] = biological target: each individual kinase of the panel (Homo sapiens, UniProt O96017, R145W)
[6] = biological target: each individual kinase of the panel (Homo sapiens, UniProt P29320)
Sequence of each individual kinase of the panel (Homo sapiens, UniProt P29320) (P29320 21-983 limits assumed): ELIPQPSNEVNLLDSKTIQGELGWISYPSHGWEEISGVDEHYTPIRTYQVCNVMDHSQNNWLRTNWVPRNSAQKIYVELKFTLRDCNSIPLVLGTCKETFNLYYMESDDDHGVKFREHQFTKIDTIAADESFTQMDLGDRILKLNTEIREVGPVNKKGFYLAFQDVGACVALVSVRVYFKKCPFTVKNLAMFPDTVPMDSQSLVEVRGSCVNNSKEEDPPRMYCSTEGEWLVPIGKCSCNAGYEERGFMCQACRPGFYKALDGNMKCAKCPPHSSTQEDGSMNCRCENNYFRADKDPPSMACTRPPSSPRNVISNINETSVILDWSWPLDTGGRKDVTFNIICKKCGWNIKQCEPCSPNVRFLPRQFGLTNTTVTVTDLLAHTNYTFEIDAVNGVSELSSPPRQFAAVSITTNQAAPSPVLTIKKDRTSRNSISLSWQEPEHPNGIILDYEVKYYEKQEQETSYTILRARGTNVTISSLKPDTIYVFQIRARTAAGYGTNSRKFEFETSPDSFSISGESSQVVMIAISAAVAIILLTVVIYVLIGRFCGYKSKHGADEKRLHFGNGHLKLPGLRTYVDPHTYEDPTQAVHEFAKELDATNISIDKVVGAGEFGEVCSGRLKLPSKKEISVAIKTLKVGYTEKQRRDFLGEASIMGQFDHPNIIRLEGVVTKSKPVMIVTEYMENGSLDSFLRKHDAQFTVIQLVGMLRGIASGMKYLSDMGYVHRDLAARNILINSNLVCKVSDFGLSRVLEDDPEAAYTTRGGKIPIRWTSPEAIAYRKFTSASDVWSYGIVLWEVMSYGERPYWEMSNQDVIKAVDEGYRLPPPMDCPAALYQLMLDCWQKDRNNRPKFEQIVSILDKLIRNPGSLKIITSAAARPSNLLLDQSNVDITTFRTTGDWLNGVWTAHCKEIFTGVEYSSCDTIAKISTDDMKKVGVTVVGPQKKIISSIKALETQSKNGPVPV

[7] = biological target: each individual kinase of the panel (Homo sapiens, UniProt Q9P0L2)
[8] = biological target: each individual kinase of the panel (Homo sapiens, UniProt O43353)
[9] = biological target: each individual kinase of the panel (Homo sapiens, UniProt P29322)
[10] = biological target: each individual kinase of the panel (Homo sapiens, UniProt P31751)
[11] = biological target: each individual kinase of the panel (Homo sapiens, UniProt Q16539, T106M)
Sequence of each individual kinase of the panel (Homo sapiens, UniProt Q16539, T106M) (Q16539 2-360 T106M limits assumed): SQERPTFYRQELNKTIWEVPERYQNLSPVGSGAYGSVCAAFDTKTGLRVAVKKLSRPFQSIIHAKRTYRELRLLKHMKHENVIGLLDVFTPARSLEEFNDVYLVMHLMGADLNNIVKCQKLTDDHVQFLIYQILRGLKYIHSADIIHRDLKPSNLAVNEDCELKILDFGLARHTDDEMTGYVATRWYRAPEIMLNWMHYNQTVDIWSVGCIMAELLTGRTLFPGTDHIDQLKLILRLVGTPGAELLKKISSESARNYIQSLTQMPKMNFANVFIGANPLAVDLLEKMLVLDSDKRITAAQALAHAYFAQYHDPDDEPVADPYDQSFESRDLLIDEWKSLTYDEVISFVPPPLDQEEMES

[12] = biological target: each individual kinase of the panel (Homo sapiens, UniProt P48730)
[13] = biological target: each individual kinase of the panel (Homo sapiens, UniProt P36896)
Sequence of each individual kinase of the panel (Homo sapiens, UniProt P36896) (P36896 24-505 limits assumed): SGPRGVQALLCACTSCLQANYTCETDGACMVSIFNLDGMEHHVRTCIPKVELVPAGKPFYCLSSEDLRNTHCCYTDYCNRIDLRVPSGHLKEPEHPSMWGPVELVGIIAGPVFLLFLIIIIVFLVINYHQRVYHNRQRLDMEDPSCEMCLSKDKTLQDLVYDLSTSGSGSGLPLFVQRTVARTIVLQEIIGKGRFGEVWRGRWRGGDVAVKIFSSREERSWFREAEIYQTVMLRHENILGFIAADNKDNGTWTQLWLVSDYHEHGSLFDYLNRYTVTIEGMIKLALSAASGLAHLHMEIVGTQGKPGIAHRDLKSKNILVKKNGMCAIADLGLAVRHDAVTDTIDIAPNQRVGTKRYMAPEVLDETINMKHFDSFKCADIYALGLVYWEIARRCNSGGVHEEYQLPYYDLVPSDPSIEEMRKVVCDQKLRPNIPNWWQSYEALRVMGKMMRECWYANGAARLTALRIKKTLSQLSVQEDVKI

[14] = biological target: each individual kinase of the panel (Homo sapiens, UniProt Q8NG66)
[15] = biological target: each individual kinase of the panel (Homo sapiens, UniProt P45984)
[16] = biological target: each individual kinase of the panel (Homo sapiens, UniProt P52564)
[17] = biological target: each individual kinase of the panel (Homo sapiens, UniProt Q09013)
[18] = biological target: each individual kinase of the panel (Homo sapiens, UniProt P52333)
[19] = biological target: each individual kinase of the panel (Homo sapiens, UniProt P05771)
Sequence of each individual kinase of the panel (Homo sapiens, UniProt P05771) (P05771 2-671 limits assumed): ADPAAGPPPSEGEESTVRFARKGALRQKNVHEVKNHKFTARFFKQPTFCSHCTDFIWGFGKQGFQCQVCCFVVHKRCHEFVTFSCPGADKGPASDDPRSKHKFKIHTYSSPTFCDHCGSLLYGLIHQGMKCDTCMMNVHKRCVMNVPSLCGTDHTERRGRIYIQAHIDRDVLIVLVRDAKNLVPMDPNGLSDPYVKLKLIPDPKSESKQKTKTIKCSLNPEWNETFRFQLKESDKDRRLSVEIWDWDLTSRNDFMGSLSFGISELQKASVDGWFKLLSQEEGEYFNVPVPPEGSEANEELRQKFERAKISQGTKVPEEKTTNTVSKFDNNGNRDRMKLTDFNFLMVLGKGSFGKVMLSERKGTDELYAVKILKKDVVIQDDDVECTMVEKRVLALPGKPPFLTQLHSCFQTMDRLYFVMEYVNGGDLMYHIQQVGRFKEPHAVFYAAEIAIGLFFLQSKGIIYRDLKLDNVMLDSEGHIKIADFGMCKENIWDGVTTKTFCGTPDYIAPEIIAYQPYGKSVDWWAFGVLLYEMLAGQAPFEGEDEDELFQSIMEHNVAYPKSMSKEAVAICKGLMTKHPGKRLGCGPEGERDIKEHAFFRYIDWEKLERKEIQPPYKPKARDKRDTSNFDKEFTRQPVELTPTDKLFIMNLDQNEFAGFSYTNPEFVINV

[20] = biological target: each individual kinase of the panel (Homo sapiens, UniProt O75116)
[21] = biological target: each individual kinase of the panel (Homo sapiens, UniProt P43250)
[22] = biological target: each individual kinase of the panel (Homo sapiens, UniProt P51956)
[23] = biological target: each individual kinase of the panel (Homo sapiens, UniProt P54762)
[24] = biological target: each individual kinase of the panel (Homo sapiens, UniProt P49761)
[25] = biological target: each individual kinase of the panel (Homo sapiens, UniProt P11362, V561M)
Sequence of each individual kinase of the panel (Homo sapiens, UniProt P11362, V561M) (P11362 22-822 V561M limits assumed): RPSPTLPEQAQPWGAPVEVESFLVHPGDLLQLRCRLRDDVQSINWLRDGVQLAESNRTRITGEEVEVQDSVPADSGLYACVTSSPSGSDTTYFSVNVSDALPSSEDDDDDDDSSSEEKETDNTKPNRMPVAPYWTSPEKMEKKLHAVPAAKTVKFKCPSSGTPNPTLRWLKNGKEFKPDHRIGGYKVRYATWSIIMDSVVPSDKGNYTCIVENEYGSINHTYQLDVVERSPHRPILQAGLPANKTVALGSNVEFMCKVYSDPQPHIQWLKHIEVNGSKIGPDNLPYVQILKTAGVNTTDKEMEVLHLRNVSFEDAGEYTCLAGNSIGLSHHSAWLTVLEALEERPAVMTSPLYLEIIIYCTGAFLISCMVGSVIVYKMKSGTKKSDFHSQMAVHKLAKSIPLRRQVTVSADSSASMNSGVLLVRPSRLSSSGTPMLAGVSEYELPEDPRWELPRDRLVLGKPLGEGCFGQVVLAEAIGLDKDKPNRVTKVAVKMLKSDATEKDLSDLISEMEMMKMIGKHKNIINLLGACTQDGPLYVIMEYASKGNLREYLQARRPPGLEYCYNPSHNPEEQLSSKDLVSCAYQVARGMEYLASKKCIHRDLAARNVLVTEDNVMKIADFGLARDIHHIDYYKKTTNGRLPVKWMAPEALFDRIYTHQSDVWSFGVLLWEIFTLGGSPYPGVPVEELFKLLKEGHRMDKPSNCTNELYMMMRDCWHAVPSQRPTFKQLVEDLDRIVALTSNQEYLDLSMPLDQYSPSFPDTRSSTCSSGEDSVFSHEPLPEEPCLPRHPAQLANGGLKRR

[26] = biological target: each individual kinase of the panel (Homo sapiens, UniProt Q08881)
[27] = biological target: each individual kinase of the panel (Homo sapiens, UniProt P54764)
Sequence of each individual kinase of the panel (Homo sapiens, UniProt P54764) (P54764 20-986 limits assumed): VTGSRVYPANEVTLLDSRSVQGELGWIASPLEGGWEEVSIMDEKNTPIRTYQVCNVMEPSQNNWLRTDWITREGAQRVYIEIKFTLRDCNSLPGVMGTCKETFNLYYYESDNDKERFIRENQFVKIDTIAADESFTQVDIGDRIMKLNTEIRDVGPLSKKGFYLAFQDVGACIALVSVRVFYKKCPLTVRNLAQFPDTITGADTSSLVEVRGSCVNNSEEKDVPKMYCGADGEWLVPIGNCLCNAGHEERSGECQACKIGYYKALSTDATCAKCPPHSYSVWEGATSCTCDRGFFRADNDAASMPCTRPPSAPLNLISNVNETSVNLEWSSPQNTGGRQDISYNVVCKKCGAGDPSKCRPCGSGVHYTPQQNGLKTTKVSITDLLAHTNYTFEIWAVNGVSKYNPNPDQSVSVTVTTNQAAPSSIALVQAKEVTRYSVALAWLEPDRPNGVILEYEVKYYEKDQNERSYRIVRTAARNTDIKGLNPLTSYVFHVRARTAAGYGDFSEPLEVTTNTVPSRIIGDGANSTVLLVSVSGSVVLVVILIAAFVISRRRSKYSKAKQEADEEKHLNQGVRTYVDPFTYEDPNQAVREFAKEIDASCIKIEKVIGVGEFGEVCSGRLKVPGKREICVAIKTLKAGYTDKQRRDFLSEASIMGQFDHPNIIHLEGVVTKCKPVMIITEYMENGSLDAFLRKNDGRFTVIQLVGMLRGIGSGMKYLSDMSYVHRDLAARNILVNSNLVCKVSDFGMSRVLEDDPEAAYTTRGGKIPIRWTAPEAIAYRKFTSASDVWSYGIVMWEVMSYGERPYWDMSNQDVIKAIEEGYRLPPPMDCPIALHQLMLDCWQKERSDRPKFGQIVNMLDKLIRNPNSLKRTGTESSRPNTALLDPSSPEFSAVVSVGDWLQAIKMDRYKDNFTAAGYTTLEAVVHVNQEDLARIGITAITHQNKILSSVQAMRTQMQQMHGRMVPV

[28] = biological target: each individual kinase of the panel (Homo sapiens, UniProt Q9HC98)
[29] = biological target: each individual kinase of the panel (Homo sapiens, UniProt Q96BR1)
[30] = biological target: each individual kinase of the panel (Homo sapiens, UniProt P43405)
[31] = biological target: each individual kinase of the panel (Homo sapiens, UniProt P21709)

Sequence of each individual kinase of the panel (Homo sapiens, UniProt Q13237) (Q13237 2-762 limits assumed): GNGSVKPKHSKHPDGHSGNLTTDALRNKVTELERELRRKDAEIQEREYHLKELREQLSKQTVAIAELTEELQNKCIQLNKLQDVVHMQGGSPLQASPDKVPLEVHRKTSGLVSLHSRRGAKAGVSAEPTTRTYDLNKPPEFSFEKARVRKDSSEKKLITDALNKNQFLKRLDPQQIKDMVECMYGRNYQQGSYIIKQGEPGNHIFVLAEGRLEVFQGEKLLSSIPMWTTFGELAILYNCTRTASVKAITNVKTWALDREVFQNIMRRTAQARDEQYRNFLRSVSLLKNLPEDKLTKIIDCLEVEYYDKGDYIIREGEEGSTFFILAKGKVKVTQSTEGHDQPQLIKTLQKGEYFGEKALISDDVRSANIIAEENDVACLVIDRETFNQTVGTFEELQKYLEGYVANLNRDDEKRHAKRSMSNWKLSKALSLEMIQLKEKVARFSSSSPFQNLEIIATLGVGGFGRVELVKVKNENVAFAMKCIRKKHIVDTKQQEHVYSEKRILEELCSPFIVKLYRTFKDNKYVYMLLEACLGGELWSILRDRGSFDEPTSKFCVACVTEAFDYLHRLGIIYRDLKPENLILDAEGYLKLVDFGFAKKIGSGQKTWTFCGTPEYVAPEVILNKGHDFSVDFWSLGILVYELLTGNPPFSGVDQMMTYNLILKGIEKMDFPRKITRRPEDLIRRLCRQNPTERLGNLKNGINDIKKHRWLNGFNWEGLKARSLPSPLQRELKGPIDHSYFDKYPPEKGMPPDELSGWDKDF

PRKG2 percentage of activity [1]: 2%
BRSK1 percentage of activity [2]: −1%
MST3 percentage of activity [3]: 0%
PAR-1B alpha percentage of activity [4]: 7%
CHK2(R145W) (h) percentage of activity [5]: 0%
EPHA3 percentage of activity [6]: −6%
MARK1 percentage of activity [7]: 0%
RIPK2 percentage of activity [8]: 2%
EPHA8 percentage of activity [9]: −15%
AKT2 percentage of activity [10]: −10%
p38-alpha (T106M) percentage of activity [11]: −8%
CK1 delta percentage of activity [12]: −4%
ALK4 percentage of activity [13]: −15%
NEK11 percentage of activity [14]: −2%
JNK2A2 percentage of activity [15]: −7%
MEK6 percentage of activity [16]: 6%
DMPK percentage of activity [17]: 4%
JAK3 percentage of activity [18]: 8%
PRKCB1 percentage of activity [19]: 0%
ROCK-II percentage of activity [20]: −4%
GRK6 percentage of activity [21]: −2%
NEK3 percentage of activity [22]: −12%
EPHB1 percentage of activity [23]: 1%
CLK3 percentage of activity [24]: 83%
FGFR1 (V561M) percentage of activity [25]: 12%
ITK;Itk(h) percentage of activity [26]: 0%
EPHA4 percentage of activity [27]: −3%
NEK6 percentage of activity [28]: −3%
SGK3 percentage of activity [29]: 2%
SYK percentage of activity [30]: −9%
EPHA1 percentage of activity [31]: −6%
SMILES: C#Cc1cccc(Nc2nc3cc(C(=O)O)ccc3c3cncnc23)c1 [drawing 1135]

From patent US8168651B2, “Protein kinase modulators” (Cylene Pharmaceuticals, Inc., priority 2008, dated 2012)
